Patent publication US11179348B2, “Combination comprising pterostilbene for the treatment of cancer” (FUNDACIÓN UNIVERSIDAD CATÓLICA DE VALENCIA SAN VICENTE …, priority 2015, dated 2021)
Marks after values point to notes of the source that are not given here.

Tests used:
B16-F1 melanoma = experiment: In vivo growth of murine B16-F1 melanoma; details: B16-F1-RFP; 15 days after inoculation; Pter 30 mg/kg i.v. every 24 h, ± CRC
Method: (§1) FIG. 14. In vivo effect of Pter on tumor growth (A) and on corticosterone (B) and ACTH (C) levels in plasma of murine B16-F1 melanoma-bearing mice. Pter (30 mg/kg) was administered i.v. every 24 h for a period of 15 days, starting 3 days after tumor inoculation.

A2058 melanoma cells = experiment: NO production (NOx) in cultured A2058 cells isolated from treated mice; assay type: cell-based, human; details: 24-h cultured A2058 cells isolated from Pter-treated mice
B16-F1 cells = experiment: Effect of Pter on B16-F1 cell growth or viability in vitro; assay type: cell-based, murine; details: 15 μM Pter×60 min every 24 h
Method: as §1
Human A2058, MeWo and MelJuso melanoma cells, and mouse AtT-20 pituitary corticotroph tumor cells were from the American Type Culture Collection (ATCC). Human HEMa-LP epidermal melanocytes were from Life Technologies (Grand Island, N.Y.). Human MDA-MB-231 (triple negative: ER−, PR−, HER2−) and MCF-7 (ER+, PR+, HER2−) breast adenocarcinoma, A549 lung adenocarcinoma (NSCLC), HepG2 hepatocellular carcinoma, LNCaP (AR+) and PC-3 (AR−) prostate adenocarcinoma, SK-OV-3 epithelial ovarian carcinoma, and HT-29 and Caco-2 colorectal carcinoma cells were from the American Type Culture Collection. Cells were grown in Dulbecco's modified Eagle's medium (DMEM) (Invitrogen, San Diego, Calif.), pH 7.4, supplemented with 10% heat-inactivated FCS (Biochrom KG, Berlin, Germany), 100 units/ml penicillin and 100 μg/ml streptomycin. […] Cell numbers were determined using a Coulter Counter (Coulter Electronic Inc., Miami, Fla.). […] Cellular viability was assessed as previously reported (Mena, S. et al. Clin Cancer Res 13, 2658-2666 (2007)), by measuring trypan blue exclusion and leakage of lactate dehydrogenase activity.

AsPC-1 pancreatic cancer = experiment: In vivo growth of AsPC-1 pancreatic cancer xenografts; set-up: species or system human; details: AsPC-1-RFP; 28 days after inoculation; Pter and/or CRC
HT-29 cells = experiment: GSH levels and glutathione- and oxidative stress-related enzyme activities in HT-29 cells growing in vivo; set-up: species or system human; details: HT-29, in vivo Pter, day 21
Method: To measure enzyme activity, isolated tumor cells were homogenized in 0.1 M phosphate buffer (pH 7.2) at 4° C. GCL and GSS activities were measured as described previously (Obrador, E. et al. Hepatology 35, 74-81 (2002)). GPX (selenium dependent) activity was measured as described by Flohé and Gunzler (Flohe, L. & Gunzler, W. A. Methods Enzymol 105, 114-121 (1984)) using H2O2 as a substrate. GSR activity was determined as described by Akerboom and Sies (Akerboom, T. P. et al, Bull Eur Physiopathol Respir 17 Suppl, 221-227 (1981)). GGT activity was measured as described previously (Obrador, E. et al. Hepatology 35, 74-81 (2002)). GST activity was measured using an assay kit from Sigma. TXNRD activity, defined by the concentration of sodium-lipoate (disulfide) reduced to dehydrolipoate (dithiol) per milligram protein, was measured as previously described (Javvadi, P. et al. Cancer Res 70, 1941-1950 (2010)). SOD activity was measured as described by Flohé and Otting (Flohe, L. & Otting, F. Methods Enzymol 105, 93-104 (1984).) using 2 mM cyanide in the assay medium to distinguish mangano-type enzyme (SOD2) from the cuprozinc type (SOD1). CAT activity was analyzed as described by Aebi (Aebi, H. Methods Enzymol 105, 121-126 (1984)). NOX activity was measured by chemiluminescence following the methodology of Wind et al. (Wind, S. et al. Comparative pharmacology of chemically distinct NADPH oxidase inhibitors. Br J Pharmacol 161, 885-898 (2010)). Protein concentration was determined with the Pierce BCA protein assay (Fisher Scientific, Waltham, Mass.).
GSH, GSSG, NADP^+ and NADPH Determination.
GSH and GSSG were determined, following procedures previously described (Obrador, E. et al. PLoS One 9, e96466 (2014)), by LC/MS using the same equipment described above for pterostilbene determination. Cell processing was performed according to published methodology, where rapid N-ethylmaleimide derivatization was used to prevent GSH auto-oxidation (Asensi, M. et al. Anal Biochem 217, 323-328 (1994)). NADP^+ and NADPH were quantitated using an assay kit from Sigma (St. Louis, Mo.).
Isolation of Tumor Cells from Mouse Xenografts Using Enzymatic Digestion and a double Ficoll gradient.
To maximize the amount of isolated cells, avoiding the use of RFP-transfected cells and subsequent laser microdissection, an alternative methodology was set up. To maximize cell yield and viability the following combination of enzymes was used: collagenase III (200 U/ml; Sigma-Aldrich), DNase I (200 U/ml; Sigma-Aldrich) and trypsin (5 mg/ml; Invitrogen), and a non-enzymatic dissociation buffer (NEDB, Invitrogen). Briefly, mice were killed, and tumors were removed (avoiding skin, muscle and fat) into cold culture media and processed immediately. The tumors were minced into 1-3 mm fragments, which were then incubated with the dissociation solution (see above) for 30 min at 37° C. The tumor fragments were mixed up and down every 10 min using a […] micropipette with a tip cut to a diameter adapted to tissue fragment size. After each incubation period, the fragments were filtered through a […] nylon mesh cell strainer (BD Biosciences, San Diego, Calif., USA). The released cells were centrifuged at 1200 r.p.m. for 2 min and stored in cold CO2-independent medium with 30% FCS at […]. Fresh dissociation solution was added to the remaining tissue fragments for 30 min. Dissociation was stopped when no additional cells were released. The fragments were pushed through a sieve and all cells from all incubation periods were pooled and counted.
The dissociated cells were layered onto a double Ficoll gradient (Histopaque; Sigma-Aldrich; densities 1.077 and 1.119) and spun at 700 g for 30 min at room temperature. Cells removed from both interfaces were pooled and washed two times in CO2-independent medium and stored at 4° C. Debris and red blood cell elimination was improved with the dual-density gradient. […]

[1] = tested on: Caco-2 colorectal carcinoma; experiment: In vivo growth of Caco-2 colorectal cancer xenografts; set-up: species or system human; details: Caco-2, day 28
[2] = tested on: MCF-7 breast adenocarcinoma; experiment: In vivo growth of MCF-7 breast cancer xenografts; set-up: species or system human; details: MCF-7, day 28

## COc1cc(/C=C/c2ccc(O)cc2)cc(OC)c1 [Pter, trans-3,5-dimethoxy-4′-hydroxystilbene]
B16-F1 melanoma
  Tumor vol.: 790 ± 156* mm^3
A2058 melanoma cells
  NO production (NOx=NO2^− plus NO3^−): 0.15±0.04 nmol/10^6 cells
B16-F1 cells
  cell growth or viability in vitro: did not affect
AsPC-1 pancreatic cancer
  Tumor vol.: 523 ± 168* mm^3
HT-29 cells
  CAT: 0.3 ± 0.1 mU/10^6 cells
  GCL: 57 ± 17 mU/10^6 cells
  GSH: 8 ± 2 nmol/10^6 cells
  GSS: 6.5 ± 1.7 mU/10^6 cells
  GSSG: 0.05 ± 0.02 nmol/10^6 cells
  SOD1: 0.2 ± 0.1 U/10^6 cells
  SOD2: 0.02 ± 0.01 U/10^6 cells
[1]
  Tumor vol.: 795 ± 285 mm^3
[2]
  Tumor vol.: 689 ± 153 mm^3
